Values joined by “and” are separate entries in the source; they are usually repeats but may differ in a detail not shown here. Identical values can stand only once. Like-named read-outs stand apart in the source and are kept apart here.
Assays:
F-IX-activating enzyme = molecular target: T1, F-IX-activating enzyme (Homo sapiens, UniProt P08246); assay: Assay of inhibitor effect: fluorogenic substrate Suc(OMe)-Ala-Ala-Pro-Val-MCA with crude enzyme extract; assay type: biochemical
T1 construct: 1-219; from tissue; host or cells: erythrocyte membranes (crude surfactant extract)
T1 sequence (P08246 30-248): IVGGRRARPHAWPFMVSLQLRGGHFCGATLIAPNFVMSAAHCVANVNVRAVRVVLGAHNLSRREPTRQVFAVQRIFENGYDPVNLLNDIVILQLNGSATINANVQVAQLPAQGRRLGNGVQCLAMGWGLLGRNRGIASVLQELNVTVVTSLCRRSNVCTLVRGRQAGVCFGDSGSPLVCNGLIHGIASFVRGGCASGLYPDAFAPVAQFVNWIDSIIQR
Procedure: Relative activity of the enzyme is a ratio of the fluorogenic intensity of the mixture of a fluorogenic synthetic substrate (Suc(OME)-Ala-Ala-Pro-Val-MCA), specific for elastase, the enzyme and inhibitor or antibody to that of the mixture of the fluorogenic substrate and enzyme not containing inhibitor or antibody (control).
To measure the fluorescence intensity of a mixture of inhibitor and the enzyme or elastase, 3 μl of 2 mM fluorogenic synthetic substrate, 2 μl of the enzyme or elastase (concentration: 0.5 mU) and inhibitor or antibody were added to 190 μl HEPES buffer. After incubating the mixture for 30 min at 37° C., 100 μl of the incubated mixture was added to 2 ml of HEPES buffer and the fluorescence intensity was measured using a fluorescence spectrophotometer at λex=380 nm and λem=460 nm.
In the experiments, a crude extract with enzymatic activity, before subjecting to anion-exchange chromatography, was used.

[1] = molecular target: T2, factor IX-activating protein (erythrocyte membrane extract) (Homo sapiens, UniProt P08246); assay: Activation of factor IX by the erythrocyte membrane extract, examined by SDS-PAGE; assay type: biochemical; conditions: inhibitor added to solution containing the extract
T2 construct: 1-219; from tissue; host or cells: erythrocyte membranes (surfactant extract / chromatography fractions)
T2 sequence (P08246 30-248): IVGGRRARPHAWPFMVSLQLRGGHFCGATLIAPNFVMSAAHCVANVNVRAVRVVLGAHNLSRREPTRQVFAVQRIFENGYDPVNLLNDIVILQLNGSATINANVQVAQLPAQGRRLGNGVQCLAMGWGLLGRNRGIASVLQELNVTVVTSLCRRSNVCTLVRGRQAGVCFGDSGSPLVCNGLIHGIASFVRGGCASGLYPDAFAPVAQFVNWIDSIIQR
Procedure: 25 μg of pure factor IX (Enzyme Res. Lab.) was dissolved in 50 μl of HEPES buffer, and was mixed with washed erythrocytes (hematocrit: about 40%). 10 μl of 26 mM CaCl2 was added to the suspension, and the mixture was incubated at 37° C. for 30 minutes, and then 30 μl of 0.1 M EDTA was added to the suspension to stop the reaction. The suspension was centrifuged to completely remove erythrocytes, and the supernatant was subjected to SDS-PAGE and Western blot analysis to examine whether the coagulation factor was activated or not. 7.5 to 15% gradient gel was used, and electrophoresis was performed at a constant current of 20 mA in the presence of 0.1% SDS. Protein bands were stained for 3 hours with a 50% ethanol (v/v)/7% acetic acid solution containing 0.25% (w/v) Coomassie brilliant blue R-250 (CBB). When activated factor IX was detected by SDS-PAGE, immunostaining was performed to confirm that the resulting band was of activated coagulation factor IX. In the immunostaining procedures, the gel subjected to electrophoresis was buffered using Towbin buffer (25 mM Tris-HCl (pH 8.3), 192 mM glycin, 20% (v/v) methanol, 0.1% SDS) for 15 minutes, followed by transferring to a polyvinylidene difluoride (PVDF) membrane under conditions of 15V and 150 mA. […]

[2] = material concentration 1 mM, 30 min at 37° C., control without material = 100.0

Molecule: [Ca+2].[Cl-].[Cl-] [CaCl2]
- Relative activity of the enzyme (%) (F-IX-activating enzyme; [2]): 156.4%

Molecule: O=C(O)CN(CCN(CC(=O)O)CC(=O)O)CC(=O)O [EDTA, reference compound]
- Relative activity of the enzyme (%) (F-IX-activating enzyme; [2]): 74.5%
- Relative activity of the enzyme (%) (F-IX-activating enzyme; material concentration 10 mM, 30 min at 37° C., control without material = 100.0): 27.0%

Molecule: CC(=O)N[C@@H](CC(C)C)C(=O)N[C@@H](CC(C)C)C(=O)N[C@H](C=O)CCCNC(=N)N [Leupeptin, reference compound]
- Relative activity of the enzyme (%) (F-IX-activating enzyme; [2]): 78.5%

Molecule: [Cl-].[Cl-].[Mg+2] [MgCl2]
- Relative activity of the enzyme (%) (F-IX-activating enzyme; [2]): 100.5%

Molecule: [Cl-].[Na+] [NaCl]
- Relative activity of the enzyme (%) (F-IX-activating enzyme): 95.5% and 84.3%

Molecule: O=S(=O)(F)Cc1ccccc1 [PMSF, reference compound]
- Relative activity of the enzyme (%) (F-IX-activating enzyme; [2]): 19.2%

Molecule: c1cnc2c(c1)ccc1cccnc12 [Phenanthroline, reference compound]
- Relative activity of the enzyme (%) (F-IX-activating enzyme; [2]): 28.8%

B1: soybean trypsin inhibitor (protein)
chain: DFVLDNEGNPLENGGTYYILSDITAFGGIRAAPTGNERCPLTVVQSRNELDKGIGTIISSPYRIRFIAEGHPLSLKFDSFAVIMLCVGIPTEWSVVEDLPEGPAVKIGENKDAMDGWFRLERVSDDEFNNYKLVFCPQQAEDDKCGDIGISIDHDDGTRRLVVSKNKPLVVQFQKLDKESL
- activation of factor IX by the extract [1]: inhibited
- Relative activity of the enzyme (%) (F-IX-activating enzyme; material concentration 1%, 30 min at 37° C., control without material = 100.0): 65.1%

Reference: patent publication US20040223967A1, “Blood coagulation factor-activating protein and antibody thereto” (RIKEN, priority 2000, published 2004)
